Data published in patent US20240100027A1, “INHIBITION OF PROSTAGLANDIN DEGRADING ENZYME 15-PGDH TO IMPROVE JOINT STRUCTURE AND FUNCTION” (The Board of Trustees of the Leland Stanford Junior …, priority 2020, published 2024).

Experiments:
[1] = system: OA knee joints of adult mice; experiment: Tibia loading (ACL rupture) post-traumatic OA in adult mice, intra-articular injections: Safranin O histology and OARSI scoring; assay type: in vivo, mice C57BL/6; settings: tibial compression OA, intra-articular twice a week for 4 weeks
Source text: Tibia loading to induce osteoarthritis in young mice. Briefly, mice were anesthetized using 2.5% isoflurane inhalation under 4 L/min of oxygen. The right tibia was positioned vertically, with the ankle upward and the knee downward in deep flexion between loading cups. Using a material testing machine (Instron ElectroPulse E1000), axial compression was applied through the knee via the upper cup, while the lower cup was fixed and linked to the load cell. The ACL tear was confirmed by the release of compressive force during compression. Mice were allowed to progress for 6 weeks after loading (n=8 for each group). Contralateral left limb served as a non-loaded control. Mice blood serum was collected via retro-orbital bleeding to do multiplex autoantibody assay. Mice were sacrificed by cervical dislocation and knee joint were collected for assessment.
Histology on mouse joints and human cartilage explants. Mouse joints were fixed in 4% paraformaldehyde overnight, dehydrated in ethanol and embedded in paraffin. Sagittal Sections (5 μm) of the mouse joints were cut by the Histoserv, Inc (Germantown, MD). Cartilage histology was performed by Safranin O (Saf O) staining as previously reported (Smeriglio et al., 2020, Sci Transi. Med. 12:eaax2332). Joints were assessed through blinded grading with the OARSI scoring system. Briefly, sections of mouse joints were stained with Safranin O, and cartilage degeneration was evaluated by assigning numbers 0 to 4 for increasing depth of cartilage degeneration (OARSI scoring system). For the summit scores, five regions were summed.
To test whether 15-PGDH inhibition would be protective in younger, adult mice upon induction of OA, OA was induced in young, adult mice (3 months old) by application of tibial compression on the mouse knee leading to anterior crucial ligament (ACL) rupture. This injury model recapitulates ACL injury frequently observed in human patients. After 1 week of injury, local intra-articular injections of vehicle or SW were given twice a week for 4 weeks. […]

[2] = system: human OA cartilage explants; experiment: Human OA cartilage explants: Safranin O staining; assay type: cell-based; settings: SW 10 uM, 1 week, all zones, especially middle and deep zone
Source text: (§1) Human cartilage tissue collection and treatment. Human cartilage samples were harvested from the surgical knee tissue discards of patients (n>5, age ranging from 55-75 years) undergoing total knee arthroplasty according to approved human subjects institutional review board protocols at Stanford University. Informed, written consent was given by the patients prior to the study. Cylindrical explants (4 mm diameter, 2-4 mm thickness) were extracted from the cartilage samples using standard biopsy punches (Integra, NJ. USA). Cartilage explants were cultured in DMEM-F12 medium supplemented with 10% fetal bovine serum (FBS), 25 μg mL^−1 ascorbic acid, 1× glutamine, and 1× antibiotic-antimycotic solution prior to experiments. To assess the effect of 15-PGDH inhibition, explants were treated with Vehicle (DMSO) or SW (10 uM) for 1 week prior to the assessment. Fresh media was added to the explants every other day.
After 1 week of treatment with SW, explants were fixed in 4% paraformaldehyde, washed with PBS, and cryopreserved in 30% sucrose solution overnight. […] Explants from at least five different patient donors and multiple (>5) sections were used for quantitative analysis.
(§2) Next, the effects of 15-PGDH inhibition in human OA cartilage were tested. […] Sulphated glycosaminoglycans (sGAG) were also independently quantified through measurements with the DMMB dye. […]

[3] = system: human OA cartilage explants; experiment: Human OA cartilage explants: Ki67 immunostaining; assay type: cell-based
Source text: as §1
Cell cycle marker-Ki67 immunostaining. Human OA explants treated with vehicle and SW were fixed and embedded in OCT as described in previous section, 10 μm sections on poly-1-lysine-coated glass slides were obtained using a cryostat. Immunostaining was performed using a standard protocol. […]
as §2

15-PGDH = 15-PGDH (Mus musculus, UniProt Q8VCC1); settings: aged muscles, one month of daily intraperitoneal treatment, cited from earlier work
Sequence of 15-PGDH (Q8VCC1 whole entry): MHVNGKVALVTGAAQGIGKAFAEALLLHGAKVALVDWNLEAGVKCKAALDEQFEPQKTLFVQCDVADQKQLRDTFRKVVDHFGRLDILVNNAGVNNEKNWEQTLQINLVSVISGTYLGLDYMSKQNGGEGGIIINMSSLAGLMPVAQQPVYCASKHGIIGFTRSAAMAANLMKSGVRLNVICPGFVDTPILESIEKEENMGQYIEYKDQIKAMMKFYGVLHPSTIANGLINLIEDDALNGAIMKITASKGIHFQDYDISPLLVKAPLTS

In the case of CCCC[S+]([O-])c1sc2nc(-c3cccs3)cc(-c3ccccc3)c2c1N (centres unmarked) [SW033291, 2-(butylsulfinyl)-4-phenyl-6-(thiophen-2-yl)thieno[2,3-b]pyridin-3-amine], the “GAG staining and cartilage degradation (Safranin O)” value ([1]; 3-month-old mice, 6 weeks) is reported as “higher GAG staining and reduced cartilage degradation”, the “OARSI Maximum score” value ([1]; vs vehicle) is reported as “significantly decreased” and the “OARSI Summit score” value ([1]; vs vehicle) is reported as “significantly decreased”. The “GAG staining (Safranin O)” value [2] was “increase in GAG staining”, the Ki67 intensity distribution ([3]; SW vs vehicle treated cells) was “increased Ki67 expression” and the Ki67 positive cells ([3]; SW vs vehicle treated explants) was “increase in Ki67 positive cells”. For the same compound, the “levels of PGE2 and PGD2” value (15-PGDH; LC-MS/MS) was “concomitant increase” and the 15-PGDH specific activity (15-PGDH) was “significantly reduced”.
